According to US20110045101A1, “FUNGICIDAL SUBSTITUTED AZOLES” (E.I. Du Pont De Nemours and Company, priority 2009, published 2011):
Marks after values point to notes of the source that are not given here.

Assays:
Type in all cases: in vivo
Conditions in all cases: 100 = 100% disease control
Alternaria solani = experiment: Test D: tomato early blight, sprayed the day before inoculation, visual disease rating
In short: (§1)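 Plants received a run-off spray at 200 ppm (equivalent to 500 g/ha) or, for starred values, 40 ppm. Formulation used acetone at 3% of volume in a 50/50 acetone/water mix carrying 250 ppm Trem® 014.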

Botrytis cinerea = experiment: Test C: tomato Botrytis on tomato seedlings, sprayed the day before inoculation, visual disease rating
In short: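 Rate: 200 ppm sprayed to run-off, corresponding to 500 g/ha; flagged values used 40 ppm. Vehicle was aqueous acetone (1:1) plus 250 ppm surfactant, compounds predissolved in acetone at 3% of volume. Plants were tomato seedlings.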

[1] = system: Puccinia recondita f. sp. tritici; experiment: Test H: wheat leaf rust, test suspension sprayed after inoculation of wheat seedlings, visual disease rating
In short: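 Wheat seedlings inoculated with P. recondita spores, held 24 h saturated at 20 °C, then 2 days in growth chamber at 20 °C; compound suspension (acetone/water with Trem 014) sprayed to run-off afterwards. Rated visually; 200 ppm (≈500 g/ha) unless marked *, which denotes 40 ppm.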

Septoria tritici = experiment: Test G: wheat leaf blotch on wheat seedlings, sprayed the day before inoculation, visual disease rating
In short: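 Seedlings receive a protective spray of test suspension in acetone/water carrying 250 ppm surfactant, mostly at 200 ppm and at 40 ppm where marked. They are inoculated the next day, kept saturated at 24° C for 48 h, then held at 20° C for 19 days before visual scoring.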

[2] = system: Puccinia recondita f. sp. tritici; experiment: Test I: wheat leaf rust on wheat seedlings, sprayed the day before inoculation, visual disease rating
In short: as §1

[3] = system: Erysiphe graminis f. sp. tritici; experiment: Test J: wheat powdery mildew on wheat seedlings, sprayed the day before inoculation, visual disease rating
In short: as §1

Septoria nodorum = experiment: Test F: wheat glume blotch on wheat seedlings, sprayed the day before inoculation, visual disease rating
In short: as §1

[4] = 200 ppm, 0 = no control relative to controls

Structure (SMILES)	Test D disease control rating (Alternaria solani; 40 ppm (marked *))	Test C disease control rating (Botrytis cinerea; 40 ppm (marked *))	Test H disease control rating ([1]; 40 ppm (marked *))	Test G disease control rating (Septoria tritici; 40 ppm (marked *))	Test I disease control rating ([2]; 40 ppm (marked *))	Test J disease control rating ([3]; 40 ppm (marked *))	Test F disease control rating (Septoria nodorum; 40 ppm (marked *))	Test D disease control rating (Alternaria solani; [4])	Test C disease control rating (Botrytis cinerea; [4])	Test H disease control rating [1, 4]	Test G disease control rating (Septoria tritici; [4])	Test I disease control rating [2, 4]	Test J disease control rating [3, 4]	Test F disease control rating (Septoria nodorum; [4])
COc1cc(F)c(-c2c(Cl)nc(Br)n2-c2ccc(C)cc2F)c(F)c1 [compound 654]	99* %	100* %	100* %	98* %	99* %	100* %	91* %							
COc1cc(F)c(-c2c(Cl)nc(Br)n2-c2ccc(C)c(I)c2)c(F)c1 [compound 655]	0* %	8* %	49* %	97* %	9* %	0* %	0* %							
N#Cc1ccc(F)c(-c2c(Cl)ncn2-c2ccc(F)cc2)c1F [compound 656]								100%	100%	9%	99%	100%	100%	20%
COc1cc(OC)cc(-n2c(Br)nc(C)c2-c2c(F)cc(OC)cc2F)c1 [compound 657]	99* %	99* %	100* %	99* %	100* %	96* %	99* %							
CCOc1ccc(F)c(-c2c(Cl)ncn2-c2ccc(Cl)cc2)c1F [compound 660]								98%	100%	9%	100%	92%	100%	82%
CCOc1ccc(F)c(-c2c(Cl)ncn2-c2cccc(F)c2)c1F [compound 661]								99%	99%	0%	99%	100%	100%	87%
CCOc1ccc(F)c(-c2c(Cl)nc(Br)n2-c2ccc(Cl)cc2)c1F [compound 662]								99%	100%	0%	99%	98%	100%	100%
CCOc1ccc(F)c(-c2c(Cl)nc(Br)n2-c2cccc(F)c2)c1F [compound 663]								99%	100%	54%	99%	99%	100%	99%
CCOc1ccc(F)c(-c2c(Cl)nc(Cl)n2-c2ccc(Cl)cc2)c1F [compound 664]								99%	100%	46%	99%	97%	100%	96%
Cc1nc(Cl)c(-c2c(F)cccc2F)n1-c1ccc(Cl)nc1 [compound 666]								100%	100%	100%	99%	100%	100%	99%
COc1cc(F)c(-c2c(Cl)nc(Cl)n2Cc2ccc(Cl)nc2)c(F)c1 [compound 667]								100%	100%	8%	99%	97%	76%	100%
COc1cc(F)c(-c2c(Cl)nc(Cl)n2Cc2ccc(Cl)nc2)c(F)c1Cl [compound 668]								99%	100%	0%	99%	85%	96%	91%
COc1cc(F)c(-c2c(Cl)ncn2Cc2ccc(Cl)nc2)c(F)c1 [compound 669]								100%	100%	73%	99%	98%	0%	99%
COc1cc(F)c(-c2c(Cl)nc(Br)n2Cc2ccc(Cl)nc2)c(F)c1 [compound 670]								100%	100%	0%	98%	98%	94%	100%
COc1cc(F)c(-c2c(Cl)nc(C)n2Cc2ccc(C)nc2)c(F)c1 [compound 671]								100%	99%	17%	95%	78%	0%	92%
COc1cc(F)c(-c2c(O)nc(C)n2-c2ccc(Cl)cc2)c(F)c1 [compound 672]								0%	96%	0%	87%	0%	0%	0%
COc1cc(F)c(-c2c(Cl)nc(Cl)n2-c2ccc(NC(C)=O)nc2)c(F)c1 [compound 673]								100%	99%	9%	99%	100%	90%	99%
COc1cc(F)c(-c2c(Cl)nc(Cl)n2-c2ccc(Cl)nc2Cl)c(F)c1 [compound 674]								93%	99%	98%	99%	100%	94%	98%
COc1cc(F)c(-c2c(Cl)nc(Cl)n2-c2cccnc2C)c(F)c1 [compound 675]								100%	100%	100%	98%	100%	100%	99%
COc1cc(F)c(-c2c(Cl)nc(Cl)n2-c2cccnc2OC)c(F)c1 [compound 676]								99%	100%	99%	99%	100%	98%	99%
